Reference: patent publication US20260083843A1, “IMMUNE CELLS TARGETING EPCAM AND MEDICAL USE THEREOF” (SUZHOU IMMUNOFOCO BIOTECHNOLOGY CO., LTD, priority 2022, published 2026)

Tested on: MKN-45-luc
Assay: Abdominal cavity metastasis model of gastric cancer
Format: in vivo, NCG mice
Conditions: single dose of 1.5 mg/kg i.p., Day 0; FIG. 3
Protocol: To study whether EpCAM-CAR-T (the amino acid sequence of the chimeric antigen receptor of EpCAM-CAR-T is set forth in SEQ ID NO: 16) can clear abdominal metastatic tumors of gastric cancer and whether the chemotherapeutic drug docetaxel can enhance the efficacy of CAR-T, we constructed an abdominal cavity metastasis model of gastric cancer based on a gastric cancer cell line MKN-45-luc. Modeling: human gastric cancer cells MKN-45-luc were cultured in an RPMI-1640 culture medium with 10% FBS in an incubator at 37° C. with 5% CO2. Before continuous cell culturing for ten generations, the cells were inoculated into the abdominal cavity of mice, about 1.5×10^6 MKN-45-luc cells were resuspended in PBS, and inoculated into NCG mice by intraperitoneal injection in a volume of […]. Grouping and administration: 7 days after the inoculation, the growth of tumor cells in the abdominal cavity was detected using a small animal in vivo imaging fluorometer. The mice were randomly grouped according to the body weight and tumor size (fluorescence intensity), with 5 animals in each group, for a total of 6 groups. The day of grouping was defined as day 0.

## CC(=O)O[C@@]12CO[C@@H]1C[C@H](O)[C@@]1(C)C(=O)[C@H](O)C3=C(C)[C@@H](OC(=O)[C@H](O)[C@@H](NC(=O)OC(C)(C)C)c4ccccc4)C[C@@](O)([C@@H](OC(=O)c4ccccc4)[C@H]21)C3(C)C [docetaxel]
  efficacy: did not produce significant efficacy
